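The compound was tested at five concentrations on cells cultured in 96-well plates, with a 48-hour exposure period. GI50 marks 50% less growth. TGI marks complete inhibition of growth.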
Legend:
Assay in all cases: growth of human tumour cells (NCI), 48 h
BT-549 breast = tested on: BT-549 breast
IGROV1 ovarian = tested on: IGROV1 ovarian
MOLT-4 leukemia = tested on: MOLT-4 leukemia
NCI-H226 lung = tested on: NCI-H226 lung
SF-268 CNS = tested on: SF-268 CNS
SR leukemia = tested on: SR leukemia
SW-620 colon = tested on: SW-620 colon
T-47D breast = tested on: T-47D breast
U251 CNS = tested on: U251 CNS
UO-31 renal = tested on: UO-31 renal

COc1cc2c(c(OC)c1OC)-c1ccc(SC)c(=O)cc1[C@@H](NC1OC(CO)C(O)C(O)C1O)CC2 (stereo partly specified)
GI50 (BT-549 breast): 0.0679 µM
TGI (BT-549 breast): > 100 µM
GI50 (IGROV1 ovarian): 0.0635 µM
TGI (IGROV1 ovarian): > 100 µM
GI50 (MOLT-4 leukemia): 0.0418 µM
TGI (MOLT-4 leukemia): > 100 µM
GI50 (NCI-H226 lung): 1.52 µM
TGI (NCI-H226 lung): > 100 µM
GI50 (SF-268 CNS): 0.049 µM
TGI (SF-268 CNS): > 100 µM
GI50 (SR leukemia): 0.0127 µM
TGI (SR leukemia): > 100 µM
GI50 (SW-620 colon): 0.0294 µM
TGI (SW-620 colon): > 100 µM
GI50 (T-47D breast): > 74.9 µM
TGI (T-47D breast): > 100 µM
GI50 (U251 CNS): 0.0318 µM
TGI (U251 CNS): 24.4 µM
GI50 (UO-31 renal): 0.0864 µM
TGI (UO-31 renal): > 100 µM

COc1ccc(-c2cc(=O)c3c(OC)c(OC)c(OC)c(OC)c3o2)cc1
TGI (BT-549 breast): > 100 µM
TGI (IGROV1 ovarian): > 100 µM
TGI (MOLT-4 leukemia): > 100 µM
TGI (NCI-H226 lung): > 100 µM
TGI (SF-268 CNS): > 100 µM
TGI (SR leukemia): > 100 µM
TGI (SW-620 colon): > 100 µM
TGI (T-47D breast): 59.5 µM
TGI (U251 CNS): > 100 µM
TGI (UO-31 renal): > 100 µM

BrCc1ccc(CBr)cc1
TGI (BT-549 breast): 3.8 µM
GI50 (IGROV1 ovarian): 7 µM
TGI (IGROV1 ovarian): > 87.4 µM
GI50 (MOLT-4 leukemia): 2.11 µM
GI50 (NCI-H226 lung): 5.37 µM
TGI (NCI-H226 lung): 15.6 µM
GI50 (SF-268 CNS): 5.82 µM
TGI (SF-268 CNS): 18 µM
GI50 (SR leukemia): > 100 µM
TGI (SR leukemia): > 100 µM
GI50 (SW-620 colon): 5.1 µM
TGI (SW-620 colon): 17.6 µM
GI50 (T-47D breast): 12.7 µM
TGI (T-47D breast): 48.8 µM
GI50 (U251 CNS): 6.25 µM
TGI (U251 CNS): > 100 µM
GI50 (UO-31 renal): 7.58 µM
TGI (UO-31 renal): > 63.2 µM

Cc1cccc(NC(=O)c2sc3nc4c(cc3c2N)CN(Cc2ccccc2)CC4)c1C
GI50 (BT-549 breast): 0.304 µM
TGI (BT-549 breast): > 50 µM
GI50 (IGROV1 ovarian): 0.337 µM
TGI (IGROV1 ovarian): > 50 µM
GI50 (MOLT-4 leukemia): 0.286 µM
TGI (MOLT-4 leukemia): > 50 µM
GI50 (NCI-H226 lung): 1.64 µM
TGI (NCI-H226 lung): > 50 µM
GI50 (SF-268 CNS): 0.387 µM
TGI (SF-268 CNS): > 50 µM
GI50 (SR leukemia): 0.0941 µM
TGI (SR leukemia): > 50 µM
GI50 (SW-620 colon): 0.207 µM
TGI (SW-620 colon): > 50 µM
GI50 (T-47D breast): 0.226 µM
TGI (T-47D breast): > 50 µM
GI50 (U251 CNS): 0.251 µM
TGI (U251 CNS): > 50 µM
GI50 (UO-31 renal): 0.917 µM
TGI (UO-31 renal): > 50 µM

C#CCOc1cccc(Nc2ncnc3c(NC(=O)CCl)cccc23)c1
GI50 (BT-549 breast): 19.3 µM
TGI (BT-549 breast): 62.5 µM
GI50 (IGROV1 ovarian): 17 µM
TGI (IGROV1 ovarian): 37.9 µM
GI50 (MOLT-4 leukemia): 14.4 µM
TGI (MOLT-4 leukemia): 71.1 µM
GI50 (NCI-H226 lung): 33.4 µM
TGI (NCI-H226 lung): > 100 µM
GI50 (SF-268 CNS): 15.7 µM
TGI (SF-268 CNS): 36.4 µM
GI50 (SR leukemia): 6.06 µM
TGI (SR leukemia): 31.7 µM
GI50 (SW-620 colon): 20.3 µM
TGI (SW-620 colon): 40.9 µM
GI50 (T-47D breast): 15.7 µM
TGI (T-47D breast): 39.3 µM
GI50 (U251 CNS): 19.4 µM
TGI (U251 CNS): 38.1 µM
GI50 (UO-31 renal): 15.5 µM
TGI (UO-31 renal): 39.2 µM

COc1ccc(C(=O)N2c3ccccc3Sc3ccccc32)c(OC)c1
GI50 (BT-549 breast): 0.659 µM
TGI (BT-549 breast): > 100 µM
GI50 (IGROV1 ovarian): 0.926 µM
TGI (IGROV1 ovarian): > 100 µM
GI50 (MOLT-4 leukemia): 0.447 µM
TGI (MOLT-4 leukemia): > 100 µM
GI50 (NCI-H226 lung): 0.843 µM
TGI (NCI-H226 lung): > 100 µM
GI50 (SF-268 CNS): 0.853 µM
TGI (SF-268 CNS): > 100 µM
GI50 (SR leukemia): 0.562 µM
TGI (SR leukemia): > 100 µM
GI50 (SW-620 colon): 0.412 µM
TGI (SW-620 colon): > 100 µM
GI50 (U251 CNS): 0.615 µM
TGI (U251 CNS): > 100 µM
GI50 (UO-31 renal): 0.739 µM
TGI (UO-31 renal): > 100 µM

CCN1C(=O)N(CC)C2C1NN=c1s/c(=C\c3ccccc3Br)c(=O)n12 (stereo unspecified)
GI50 (BT-549 breast): 0.0327 µM
TGI (BT-549 breast): 17.1 µM
GI50 (IGROV1 ovarian): 0.0408 µM
TGI (IGROV1 ovarian): 21.8 µM
GI50 (MOLT-4 leukemia): 0.0399 µM
TGI (MOLT-4 leukemia): 29.5 µM
GI50 (NCI-H226 lung): 0.132 µM
TGI (NCI-H226 lung): 4.98 µM
GI50 (SF-268 CNS): 0.0612 µM
TGI (SF-268 CNS): > 59.5 µM
GI50 (SR leukemia): 0.023 µM
TGI (SR leukemia): > 100 µM
GI50 (SW-620 colon): 0.037 µM
TGI (SW-620 colon): > 54.2 µM
GI50 (T-47D breast): 13.5 µM
TGI (T-47D breast): 57.9 µM
GI50 (U251 CNS): 0.0418 µM
TGI (U251 CNS): 22.3 µM
GI50 (UO-31 renal): 0.205 µM
TGI (UO-31 renal): 34.4 µM

CCOc1nc(N)nc(C)c1N=Nc1ccc(Cl)cc1
TGI (BT-549 breast): > 100 µM
TGI (IGROV1 ovarian): > 100 µM
TGI (MOLT-4 leukemia): > 100 µM
TGI (NCI-H226 lung): > 100 µM
TGI (SF-268 CNS): > 100 µM
TGI (SR leukemia): 23.9 µM
TGI (SW-620 colon): > 100 µM
TGI (T-47D breast): > 100 µM
TGI (U251 CNS): > 100 µM
TGI (UO-31 renal): > 100 µM

COc1ccc2cc(-c3c(-c4ccncc4)nc(-c4ccc(S(C)=O)cc4)n3C)ccc2c1 (stereo unspecified)
GI50 (BT-549 breast): 21.1 µM
TGI (BT-549 breast): > 25 µM
GI50 (IGROV1 ovarian): > 25 µM
TGI (IGROV1 ovarian): > 25 µM
GI50 (MOLT-4 leukemia): 17.2 µM
TGI (MOLT-4 leukemia): > 25 µM
GI50 (NCI-H226 lung): > 9.95 µM
TGI (NCI-H226 lung): > 25 µM
GI50 (SF-268 CNS): > 25 µM
TGI (SF-268 CNS): > 25 µM
GI50 (SR leukemia): > 25 µM
TGI (SR leukemia): > 25 µM
GI50 (SW-620 colon): > 25 µM
TGI (SW-620 colon): > 25 µM
GI50 (T-47D breast): 7.92 µM
TGI (T-47D breast): 24.6 µM
GI50 (U251 CNS): > 25 µM
TGI (U251 CNS): > 25 µM
GI50 (UO-31 renal): 6.42 µM
TGI (UO-31 renal): > 25 µM

Cc1cc(N(CCC#N)CCC#N)ccc1/C=C1N=C(/C=C\c2ccccc2)N(c2ccc(Cl)cc2)C\1=O
TGI (BT-549 breast): > 100 µM
TGI (IGROV1 ovarian): > 100 µM
TGI (MOLT-4 leukemia): > 100 µM
TGI (NCI-H226 lung): > 100 µM
TGI (SF-268 CNS): > 100 µM
TGI (SR leukemia): > 100 µM
TGI (SW-620 colon): > 100 µM
TGI (T-47D breast): > 100 µM
TGI (U251 CNS): > 100 µM
TGI (UO-31 renal): > 53.9 µM

COC(=O)c1nc(-c2ccccc2)oc1S(=O)(=O)n1nc(C)cc1N
GI50 (BT-549 breast): 10.8 µM
TGI (BT-549 breast): 23.2 µM
GI50 (IGROV1 ovarian): 15.7 µM
TGI (IGROV1 ovarian): 36.5 µM
GI50 (MOLT-4 leukemia): 3.08 µM
TGI (MOLT-4 leukemia): 11.4 µM
GI50 (NCI-H226 lung): 16.5 µM
TGI (NCI-H226 lung): 41.1 µM
GI50 (SF-268 CNS): 18.9 µM
TGI (SF-268 CNS): 41.3 µM
GI50 (SR leukemia): 0.933 µM
TGI (SR leukemia): 3.94 µM
GI50 (SW-620 colon): 3.22 µM
TGI (SW-620 colon): 11.2 µM
GI50 (T-47D breast): 3.84 µM
TGI (T-47D breast): 18.3 µM
GI50 (U251 CNS): 16.5 µM
TGI (U251 CNS): 30.8 µM
GI50 (UO-31 renal): 8.59 µM
TGI (UO-31 renal): 21.1 µM

CN(C)CC1CCCC1=O (stereo unspecified)
TGI (BT-549 breast): 13.8 µM
TGI (IGROV1 ovarian): 21.5 µM
TGI (MOLT-4 leukemia): 0.875 µM
TGI (NCI-H226 lung): 30.5 µM
TGI (SF-268 CNS): 13.6 µM
TGI (SR leukemia): 0.289 µM
TGI (SW-620 colon): 0.517 µM
TGI (T-47D breast): 15.2 µM
TGI (U251 CNS): 14.9 µM
TGI (UO-31 renal): 22.9 µM

CCCCn1c(=O)c2c(nc3n2CCCN3CCc2ccc(OCC(=O)NCCN(CC)CC)cc2)n(CCCC)c1=O
GI50 (BT-549 breast): 2.55 µM
TGI (BT-549 breast): 8.85 µM
GI50 (IGROV1 ovarian): 5.83 µM
TGI (IGROV1 ovarian): 15.4 µM
GI50 (MOLT-4 leukemia): 2.14 µM
TGI (MOLT-4 leukemia): 10.5 µM
GI50 (NCI-H226 lung): 7.13 µM
TGI (NCI-H226 lung): 16.9 µM
GI50 (SF-268 CNS): 5.16 µM
TGI (SF-268 CNS): 12.8 µM
GI50 (SR leukemia): 1.14 µM
TGI (SR leukemia): 3.02 µM
GI50 (SW-620 colon): 4.86 µM
TGI (SW-620 colon): 11.2 µM
GI50 (T-47D breast): 4.3 µM
TGI (T-47D breast): 13.7 µM
GI50 (U251 CNS): 2.14 µM
TGI (U251 CNS): 8.1 µM
GI50 (UO-31 renal): 1.51 µM
TGI (UO-31 renal): 7.86 µM

N#CN1CC[C@H](C(=O)Nc2ncc(-c3ccncc3)s2)C1
GI50 (BT-549 breast): < 0.0116 µM
TGI (BT-549 breast): 0.188 µM
GI50 (IGROV1 ovarian): 0.0351 µM
TGI (IGROV1 ovarian): 68.4 µM
GI50 (MOLT-4 leukemia): < 0.01 µM
TGI (MOLT-4 leukemia): 3.8 µM
GI50 (NCI-H226 lung): 0.151 µM
TGI (NCI-H226 lung): 1.5 µM
GI50 (SF-268 CNS): 0.127 µM
TGI (SF-268 CNS): 6.96 µM
GI50 (SR leukemia): < 0.01 µM
TGI (SR leukemia): 4.18 µM
GI50 (SW-620 colon): 0.023 µM
TGI (SW-620 colon): 19.5 µM
GI50 (T-47D breast): < 0.0177 µM
TGI (T-47D breast): 1.24 µM
GI50 (U251 CNS): 0.0853 µM
TGI (U251 CNS): 53.5 µM
GI50 (UO-31 renal): < 0.0188 µM
TGI (UO-31 renal): 0.758 µM

— PubChem BioAssay (NCI)
